Assay results from publication PMC3885546, “Structural Determinants of the 5′-Methylthioinosine Specificity of Plasmodium Purine Nucleoside Phosphorylase” (PLoS ONE, 2014).
Like-named read-outs stand apart in the source and are kept apart here. Marks after values point to notes of the source that are not given here.

Columns and labels:
P. falciparum [1] = test system: P. falciparum; design: method as in PMID 22096507; settings: Aotus model; cited from earlier work
Pf Tyr160Phe PNP = target: T1, Pf Tyr160Phe PNP (Plasmodium falciparum, UniProt Q8T9Z7, Y160F); test: Inhibition by immucillins (initial and slow onset); assay type: biochemical; settings: initial
T1 construct: made in house; host or cells: Escherichia coli Top 10
Description: (§1) Kinetic assays were completed in 50 mM KH2PO4 at pH 7.4 measuring phosphorylysis of inosine or MTI by PNP in a coupled reaction with 60 milliunits/ml xanthine oxidase to convert hypoxanthine to uric acid. […] Assays were performed with excess substrate in the presence of inhibitors. Inhibition studies measured both initial (Ki) and slow onset inhibition (Ki*) for inhibitors. The initial onset inhibition was analyzed by using the following equation: ν ο = (k cat×S)/(K m(1+I/Ki)+S), ν ο is the steady state rate, k cat catalytic rate, S is substrate concentration, Km is Michealis constant for inosine, I is inhibitor concentration, and Ki is the equilibrium dissociation constant.

Pf V66I:V73I PNP = target: T2, Pf V66I:V73I PNP (Plasmodium falciparum, UniProt Q8T9Z7, V66I/V73I); test: Inhibition by immucillins (initial and slow onset); assay type: biochemical; settings: initial
T2 construct: made in house; host or cells: Escherichia coli Top 10
Description: as §1

Pf V66I:V73I:Y160F PNP = target: T3, Pf V66I:V73I:Y160F PNP (Plasmodium falciparum, UniProt Q8T9Z7, V66I/V73I/Y160F); test: Inhibition by immucillins (initial and slow onset); assay type: biochemical; settings: initial
T3 construct: made in house; host or cells: Escherichia coli Top 10
Description: as §1

Pf Val66Ile PNP = target: T4, Pf Val66Ile PNP (Plasmodium falciparum, UniProt Q8I3X4, V66I); test: Inhibition by immucillins (initial and slow onset); assay type: biochemical; settings: slow onset
T4 construct: made in house; host or cells: Escherichia coli Top 10
Description: as §1

TgPNPWT [2] = settings: TgPNP WT, ref Chaudhary, et al. [18], cited from earlier work
P. falciparum [3] = settings: purine-rich environment of cultured red blood cells; cited from earlier work
TgPNPWT [4] = test: Inhibition by immucillins (literature values); assay type: biochemical, Toxoplasma gondii; settings: TgPNP versus PfPNP
[5] = test system: PfPNP versus mammalian PNP; design: method as in PMID 15576366; settings: cited from earlier work
[6] = substrate: OC[C@H]1O[C@@H](n2cnc3c(O)ncnc32)[C@H](O)[C@@H]1O; test: Substrate kinetics, xanthine oxidase coupled phosphorolysis assay; assay type: biochemical, Plasmodium falciparum; settings: other: wild type PfPNP, substrate = label, 50 mM KH2PO4 pH 7.4, mean ± SD
Description: Kinetic assays were completed in 50 mM KH2PO4 at pH 7.4 measuring phosphorylysis of inosine or MTI by PNP in a coupled reaction with 60 milliunits/ml xanthine oxidase to convert hypoxanthine to uric acid. Formation of uric acid was measured at 293 nm wavelength (E293 = 12.9 mM^−1 cm^−1), [20]. In cases where activity for MTI was low, increased protein concentration (10 µg/ml) was used to check enzyme function. Assays were performed with excess substrate in the presence of inhibitors. Inhibition studies measured both initial (Ki) and slow onset inhibition (Ki*) for inhibitors. The initial onset inhibition was analyzed by using the following equation: ν ο = (k cat×S)/(K m(1+I/Ki)+S), ν ο is the steady state rate, k cat catalytic rate, S is substrate concentration, Km is Michealis constant for inosine, I is inhibitor concentration, and Ki is the equilibrium dissociation constant.

[7] = target: the molecule itself; test: SEC; Superose 12 gel filtration, 0.1 ml of 1 mg/ml loaded, 20 mM HEPES, 50 mM KCl, 5 mM KH2PO4, 0.1 mM DTT, pH 7.4, 0.5 ml/min; self-association (hexamer)
[8] = target: the molecule itself; test: crystal structure; V66I:V73I:Y160F PfPNP with ImmH and phosphate, 2.8 Å, space group I4(1)32, 2 molecules in the asymmetric unit; hexamer as a trimer of dimers

T1 sequence (Q8T9Z7 whole entry Y160F): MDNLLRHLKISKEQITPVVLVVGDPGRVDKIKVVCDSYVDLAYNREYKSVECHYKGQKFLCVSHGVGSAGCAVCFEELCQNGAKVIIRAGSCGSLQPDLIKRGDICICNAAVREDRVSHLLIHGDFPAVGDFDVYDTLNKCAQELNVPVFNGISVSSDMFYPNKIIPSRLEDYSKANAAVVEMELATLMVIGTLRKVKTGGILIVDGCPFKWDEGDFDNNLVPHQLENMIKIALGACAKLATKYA
T3 sequence (Q8T9Z7 whole entry V66I/V73I/Y160F): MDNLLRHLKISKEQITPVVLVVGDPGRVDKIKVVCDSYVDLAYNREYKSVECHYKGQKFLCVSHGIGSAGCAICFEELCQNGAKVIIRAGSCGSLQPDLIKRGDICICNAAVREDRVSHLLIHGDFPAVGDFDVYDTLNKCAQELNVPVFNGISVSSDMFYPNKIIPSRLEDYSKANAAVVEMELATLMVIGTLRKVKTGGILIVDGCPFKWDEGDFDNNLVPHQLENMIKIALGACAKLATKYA
T2 sequence (Q8T9Z7 whole entry V66I/V73I): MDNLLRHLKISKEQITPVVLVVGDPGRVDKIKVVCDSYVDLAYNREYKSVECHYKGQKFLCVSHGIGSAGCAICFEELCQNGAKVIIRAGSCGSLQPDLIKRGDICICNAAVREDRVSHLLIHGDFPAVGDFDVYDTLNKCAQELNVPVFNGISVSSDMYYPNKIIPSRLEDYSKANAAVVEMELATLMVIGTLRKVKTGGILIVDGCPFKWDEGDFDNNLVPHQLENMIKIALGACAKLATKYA
T4 sequence (Q8I3X4 whole entry V66I): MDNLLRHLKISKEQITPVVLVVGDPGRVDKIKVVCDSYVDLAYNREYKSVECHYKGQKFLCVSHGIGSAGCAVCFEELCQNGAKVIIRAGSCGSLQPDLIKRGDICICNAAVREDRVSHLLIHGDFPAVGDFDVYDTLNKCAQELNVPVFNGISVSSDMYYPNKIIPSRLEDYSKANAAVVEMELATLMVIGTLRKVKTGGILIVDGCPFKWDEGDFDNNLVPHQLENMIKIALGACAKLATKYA

Molecule: Nc1nc2c(CN3C[C@H](CO)[C@@H](O)C3)c[nH]c2c(=O)[nH]1 [DADMe-Immucillin-G]
- efficacy against P. falciparum (P. falciparum [1]): effective against P. falciparum in the Aotus model

Molecule: O=c1[nH]cnc2c([C@@H]3N[C@H](CO)[C@@H](O)[C@H]3O)c[nH]c12 [ImmH, Immucillin-H]
- Ki (Pf Tyr160Phe PNP): 0.93 nM
- Ki (Pf V66I:V73I PNP): 270 nM
- Ki (Pf V66I:V73I:Y160F PNP): 3.6 nM
- Ki* (Pf Val66Ile PNP): (-) ^c
- Ki (TgPNPWT [2]; initial): 450 nM
- Ki (TgPNPWT [2]; slow onset): 2 nM
- effect on P. falciparum (P. falciparum [3]): causes P. falciparum cell death by purine starvation

Molecule: CSC[C@H]1N[C@@H](c2c[nH]c3c(=O)[nH]cnc23)[C@H](O)[C@@H]1O [MT-ImmH, 5′-methylthioimmucillin-H]
- less effective for TgPNP than for PfPNP (Ki*) (TgPNPWT [4]): more than 160 fold
- Ki (TgPNPWT [2]; initial): 7100 nM
- Ki (TgPNPWT [2]; slow onset): 290 nM
- greater specificity for PfPNP versus mammalian PNP [5]: 100 fold

B1: PfPNP (wild type) (Plasmodium falciparum 3D7) (protein)
chain: MDNLLRHLKISKEQITPVVLVVGDPGRVDKIKVVCDSYVDLAYNREYKSVECHYKGQKFLCVSHGVGSAGCAVCFEELCQNGAKVIIRAGSCGSLQPDLIKRGDICICNAAVREDRVSHLLIHGDFPAVGDFDVYDTLNKCAQELNVPVFNGISVSSDMYYPNKIIPSRLEDYSKANAAVVEMELATLMVIGTLRKVKTGGILIVDGCPFKWDEGDFDNNLVPHQLENMIKIALGACAKLATKYA
notes: made in house; host or cells: Escherichia coli Top 10
- Km [6]: 11 ± 5 µM
- kcat [6]: 1.7 ± 0.7 s⁻¹
- kcat/Km [6]: 150000 M⁻¹ s⁻¹

B2: Plasmodium falciparum purine nucleoside phosphorylase (PfPNP), wild type (enzyme, Plasmodium falciparum (3D7 strain))
chain: DNLLRHLKISKEQITPVVLVVGDPGRVDKIKVVCDSYVDLAYNREYKSVECHYKGQKFLCVSHGVGSAGCAVCFEELCQNGAKVIIRAGSCGSLQPDLIKRGDICICNAAVREDRVSHLLIHGDFPAVGDFDVYDTLNKCAQELNVPVFNGISVSSDMYYPNKIIPSRLEDYSKANAAVVEMELATLMVIGTLRKVKTGGILIVDGCPFKWDEGDFDNNLVPHQLENMIKIALGACAKLATKYA
notes: purine nucleoside phosphorylase of P. falciparum 3D7; also called PfPNP WT; wild-type PfPNP; source: E. coli Top 10, purified (Ni-NTA); not shown: c-Myc, C-terminal, kept; His6, C-terminal, kept
- stoichiometry N [7]: 6

B3: V66I:V73I:Y160F PfPNP (triple mutant Val66Ile:Val73Ile:Tyr160Phe) (enzyme)
chain: DNLLRHLKISKEQITPVVLVVGDPGRVDKIKVVCDSYVDLAYNREYKSVECHYKGQKFLCVSHGIGSAGCAICFEELCQNGAKVIIRAGSCGSLQPDLIKRGDICICNAAVREDRVSHLLIHGDFPAVGDFDVYDTLNKCAQELNVPVFNGISVSSDMFYPNKIIPSRLEDYSKANAAVVEMELATLMVIGTLRKVKTGGILIVDGCPFKWDEGDFDNNLVPHQLENMIKIALGACAKLATKYA
notes: also called Pf V66I:V73I:Y160F; triple PfPNP mutant; source: E. coli Top 10, purified (Ni-NTA; Superdex 200 for larger scale); not shown: c-Myc, C-terminal, kept; His6, C-terminal, kept
- stoichiometry N [8]: 6
